# Reference: PubChem BioAssay (NCI)
# Several values for one entry are separate records, joined by “and”; a condition that tells them apart may be missing. Equal values may be shown once.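 Grown in 96-well plates, cells were treated for 48 hours with each compound at five concentrations. Insufficient inhibition: endpoint recorded as highest concentration tested. GI50 marks 50% less growth. TGI: concentration producing complete growth inhibition.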
# How the values were obtained:
# Test in all cases: NCI anticancer screen, dose series, 48 h
# A549 NSCLC = test system: A549 NSCLC
# MDA-MB-231 breast = test system: MDA-MB-231 breast
# NCI-H23 lung = test system: NCI-H23 lung
# OVCAR-8 ovarian = test system: OVCAR-8 ovarian
# SK-MEL-5 melanoma = test system: SK-MEL-5 melanoma
# TK-10 renal = test system: TK-10 renal
# UACC-62 melanoma = test system: UACC-62 melanoma
# UO-31 renal = test system: UO-31 renal
SMILES,GI50 (A549 NSCLC),TGI (A549 NSCLC),GI50 (MDA-MB-231 breast),TGI (MDA-MB-231 breast) [µM],GI50 (NCI-H23 lung),TGI (NCI-H23 lung),GI50 (OVCAR-8 ovarian),TGI (OVCAR-8 ovarian),GI50 (SK-MEL-5 melanoma),TGI (SK-MEL-5 melanoma),GI50 (TK-10 renal),TGI (TK-10 renal),GI50 (UACC-62 melanoma),TGI (UACC-62 melanoma) [µM],GI50 (UO-31 renal),TGI (UO-31 renal) [µM]
Oc1c(C(Nc2ccccn2)c2cccc(Oc3ccccc3)c2)ccc2cccnc12 (stereo not given),0.544 µM,20 µM,0.617 µM,19.5,0.839 µM,> 100 µM,0.424 µM,19.7 µM,0.388 µM,2.16 µM,0.672 µM,14.5 µM,0.31 µM,1.29,0.382 µM,3.11
O=C(c1ccccc1)C(Cl)C(Cl)c1ccccc1 (stereo not given),18.3 µM,34.2 µM,3.16 µM,8.97,3.27 µM,12.8 µM,3.06 µM,10.1 µM,2.93 µM,10.7 µM,3.14 µM,9.12 µM,1.69 µM,3.69,1.62 µM,3.45
O=Cc1cccc2ccc3ccccc3c12,–,85.3 µM,–,77.3,–,66.5 µM,–,> 100 µM,–,39.6 µM,–,40.2 µM,–,76,–,> 100
O=C(/C=C/C12c3ccccc3C(c3ccccc31)C1C(=O)N(c3ccc(Cl)cc3)C(=O)C12)c1ccccn1 (stereo not given),0.288 µM,0.989 µM,0.318 µM,2.23,0.342 µM,1.36 µM,0.328 µM,> 100 µM,0.515 µM,1.21 µM,1.46 µM,4.87 µM,0.279 µM,0.973,0.178 µM,0.399
N#CC(C#N)=NNc1ccc2cn[nH]c2c1,–,> 100 µM,–,> 100,–,50 µM,–,> 100 µM,–,> 100 µM,–,76.1 µM,–,> 100,–,28.1
O=C(CCCn1c2c(sc3ccccc32)c(=O)n2nnc(-c3ccccc3)c12)NCCc1cnc[nH]1,–,–,1.91 µM,3.5,2.71 µM,9.6 µM,–,2.99 µM,1.84 µM,11.4 µM,2 µM,3.75 µM,1.81 µM,3.39,1.42 µM,2.95
O=C1Nc2ccccc2/C1=C\c1c(-c2ccccc2)nc2sccn12,3.5 µM,> 100 µM,1.39 µM,6.18,1.63 µM,4.18 µM,4.58 µM,> 100 µM,2.2 µM,7.89 µM,4.61 µM,17.2 µM,0.798 µM,9.72,2.55 µM,13.3
C[C@@H](N)COc1ccc(-c2cnc3ccc(N[C@H](C)c4cccc(F)c4)nn23)cc1,1.53 µM,3.82 µM,1.48 µM,3.19,2.96 µM,13.1 µM,1.84 µM,4.3 µM,1.63 µM,3.03 µM,1.75 µM,8.22 µM,1.97 µM,4.74,1.94 µM,7.81
Cc1ccc([P+](Cc2ccccc2)(c2ccccc2)c2ccccc2)cc1,3.08 µM,64.8 µM,2.17 µM,19.2,–,–,1.74 µM,11.3 µM,0.904 µM,2.3 µM,–,–,1.77 µM,11.3,10.3 µM,67.7
O=C(Cn1c(C(=O)c2ccc(Cl)cc2)nc(-c2ccc(Cl)cc2)c1-c1ccc(Cl)cc1)c1ccccc1,> 100 µM,> 100 µM,> 100 µM,> 100,> 100 µM,> 100 µM,> 100 µM,> 100 µM,> 100 µM,> 100 µM,> 100 µM,> 100 µM,> 100 µM,> 100,> 100 µM,> 100
Cc1ccc([Se](=C(C(=O)c2ccccc2)C(=O)c2ccccc2)c2ccc(C)cc2)cc1,–,> 100 µM,–,35.2,–,59.2 µM,–,> 100 µM,–,37.2 µM,–,94.6 µM,–,51.5,–,> 100
Fc1cc(F)c(F)c(S)c1F,–,> 100 µM,–,44.8,–,> 100 µM,–,> 100 µM,–,> 100 µM,–,> 100 µM,–,> 100,–,> 100
O=[N+]([O-])c1ccc(/C=C/c2nc3ccc(Cl)cc3[nH]2)cc1,37.8 µM,> 100 µM,26.5 µM,> 100,54.5 µM,> 100 µM,24.5 µM,63.6 µM,31.6 µM,> 100 µM,28.2 µM,> 100 µM,> 100 µM,> 100,30 µM,> 100
O=C1/C(=C/c2ccc([N+](=O)[O-])s2)Oc2cc(Cl)ccc21,2.67 µM,> 100 µM,0.404 µM,1.75,–,–,0.469 µM,2.59 µM,1.2 µM,2.57 µM,8.27 µM,> 21.1 µM,0.998 µM,3.14,0.317 µM,1.22
CC(=O)OCC12CN(C#N)C3C4COC(CC41)C1(C(=O)N(C)c4ccccc41)C32 (stereo not given),–,> 100 µM,–,64.9,–,44.6 µM,–,55 µM,–,86.3 µM,–,66.5 µM,–,52.2,–,31.4
Oc1cc(N2CC2)c(O)cc1N1CC1,0.783 µM,10.7 µM,10.3 µM,64.2,0.396 µM,1.8 µM,1.25 µM,9.44 µM,0.874 µM,2.99 µM,1.27 µM,9.35 µM,0.918 µM,2.91,0.164 µM,0.818
COc1ccc2c(c1)CC[C@@H]1C2CC[C@]2(C)C(=O)N(CCN(C)C)C(=O)CC12 (stereo not given in full),–,> 100 µM,–,> 100,–,> 100 µM,–,> 100 µM,–,> 100 µM,–,> 100 µM,–,> 100,–,> 100
CN1CCN(Cc2ccc(NC(=O)c3cncc(C#Cc4c(N)ncc5ccc(C#N)cc45)c3)cc2C(F)(F)F)CC1,0.867 µM,1.68 µM,0.525 µM,1.23,1.02 µM,3.6 µM,0.926 µM,1.87 µM,0.785 µM,1.54 µM,0.969 µM,1.87 µM,0.668 µM,1.42,0.971 µM,1.73

SMILES,GI50 (A549 NSCLC),TGI (A549 NSCLC),GI50 (MDA-MB-231 breast),TGI (MDA-MB-231 breast) [µM],GI50 (NCI-H23 lung),TGI (NCI-H23 lung),GI50 (OVCAR-8 ovarian),TGI (OVCAR-8 ovarian),GI50 (SK-MEL-5 melanoma),TGI (SK-MEL-5 melanoma),GI50 (TK-10 renal),TGI (TK-10 renal),GI50 (UACC-62 melanoma),TGI (UACC-62 melanoma) [µM],GI50 (UO-31 renal),TGI (UO-31 renal) [µM]
N#Cc1c(NCc2ccccc2)nc(NCc2ccccc2)c(C#N)c1-c1ccc(Cl)cc1,> 50 µM and 51.5 µM,> 100 µM,> 50 µM and 31.9 µM,> 100,> 50 µM and 67.1 µM,> 100 µM,> 50 µM and 45.7 µM,> 100 µM,> 100 µM,> 100 µM,> 50 µM and 62.7 µM,> 100 µM,> 50 µM and 37.8 µM,> 100,> 100 µM,> 100
CC(C)NC(=O)OCc1c(COC(=O)NC(C)C)c(-c2ccc[n+](COC(=O)Cc3ccccc3)c2)n2c1CCC2,–,> 100 µM,–,74.7,–,69.6 µM,–,> 100 µM,–,> 100 µM,–,> 100 µM,–,44.7,–,70.8
O=C([O][Hg][c]1ccccc1)c1ccccc1,12.7 µM,40 µM,1.86 µM,4.62,2.05 µM,4.84 µM,–,–,1.53 µM,3.06 µM,1.6 µM,2.95 µM,1.55 µM,4.18,1.47 µM,2.89
COc1ccc2nc3c([N+](=O)[O-])ccc(NCCN(C)C)c3c(N)c2c1,–,3.29 µM,–,1.27,–,3.73 µM,–,4.33 µM,–,3.45 µM,–,3.09 µM,–,3.63,–,2.87
CC(c1cc(Cl)ccc1O)c1cc(Cl)ccc1O,4.15 µM,18.9 µM,3.88 µM,16.2,2.83 µM,8.32 µM,4.04 µM,19.9 µM,3.41 µM,10 µM,11.8 µM,24.7 µM,3.58 µM,15,2.3 µM,10.8
O=C(O)CCCCn1ccc(=O)[nH]c1=O,–,> 100 µM,–,> 100,–,> 100 µM,–,> 100 µM,–,> 100 µM,–,> 100 µM,–,> 100,–,> 100
COc1cc2c3c(n(CCCN4CCNCC4)c(=O)c2cc1OC)-c1cc2c(cc1C3=O)OCO2,0.0393 µM,0.922 µM,0.803 µM,2.23,0.104 µM,1.47 µM,0.0803 µM,1.06 µM,1.33 µM,10.5 µM,0.762 µM,2.66 µM,0.997 µM,7.61,1.19 µM,10.6
CC1=C/C=C/C(=O)O[C@@H]([C@H](C)[C@H](O)[C@@H](C)NC(=O)C(C)C)[C@H](C)/C=C/C(C)=C/[C@H]2C=CCC[C@@]2(C)\C=C\1,1.83 µM and 0.328 µM,13.2 µM,0.0186 µM,0.106,1.75 µM and 1.49 µM,15.2 µM,3.17 µM and 0.989 µM,34.2 µM,0.0634 µM and 0.0202 µM,0.81 µM and 0.812 µM,6.12 µM,19 µM,0.418 µM and 0.62 µM,8.98,0.244 µM and 0.396 µM,7.85
CNS(=O)(=O)OCC1OC(n2cnc3cncnc32)C(O)C1O (stereo not given),> 100 µM,> 100 µM,> 100 µM,> 100,> 100 µM,> 100 µM,> 100 µM,> 100 µM,> 100 µM,> 100 µM,> 100 µM,> 100 µM,> 100 µM,> 100,> 100 µM,> 100
CCCCCCCCCCCCCC[n+]1ccccc1,1.22 µM,2.84 µM,0.771 µM,2.52,0.507 µM,3.02 µM,–,–,0.369 µM,1.43 µM,0.491 µM,1.81 µM,0.96 µM,2.34,1.42 µM,4.82
CC1CCCC(C(=O)CC2CC(=O)NC(=O)C2)C1=O (stereo not given),–,> 100 µM,–,> 100,–,> 100 µM,–,> 100 µM,–,> 100 µM,–,> 100 µM,–,> 100,–,> 100
O=c1cc(-c2ccccc2)[nH]c2ncccc12,–,> 100 µM,–,> 26.7,–,–,–,4.01 µM,–,> 60.6 µM,–,> 100 µM,–,–,–,> 100
CCCCCCC1N=C(N)N=C(N)N1c1cccc(Cl)c1 (stereo not given),0.181 µM,> 44.5 µM,1.93 µM,22.5,0.496 µM,15 µM,0.612 µM,19.5 µM,0.474 µM,13 µM,3.66 µM,25.9 µM,0.527 µM,12.3,31.5 µM,97.5
Cc1cc(Cl)nc2ccc(Cc3ccc4nc(Cl)cc(C)c4c3)cc12,–,> 100 µM,–,> 100,–,> 100 µM,–,> 100 µM,–,> 100 µM,–,59.7 µM,–,> 100,–,> 100
CNC(=O)c1nn(C)c2c1C(C)(C)Cc1cnc(Nc3cccc(N4CCN(C)CC4)c3)nc1-2,0.34 µM,13.8 µM,–,–,0.372 µM,9.81 µM,1.25 µM,22.3 µM,0.954 µM,5.46 µM,0.271 µM,24.4 µM,0.369 µM,11.6,0.0881 µM,1.96
COc1cc2c(c(O)c1Cl)C(=O)c1c(O)cc(C[C@H](C)O)cc1[C@H]2[C@H]1c2cc(C[C@H](C)O)cc(O)c2C(=O)c2c1cc(OC)c(Cl)c2O,–,75 µM and > 100 µM,–,–,–,75 µM and 84.6 µM,–,75 µM and > 100 µM,–,–,–,33 µM and > 100 µM,–,–,–,–
COc1cc(-c2cc3ncccc3c3nc(OCCN(C)C)c4cccnc4c23)cc(OC)c1OC,0.346 µM,1.54 µM,–,–,0.619 µM,3.31 µM,0.339 µM,1.94 µM,0.468 µM,1.96 µM,0.294 µM,1.39 µM,0.42 µM,2.45,0.28 µM,1.32
Cn1c(-c2ccc(-c3cc(-c4cccs4)c(-c4cccs4)n3C)cc2)cc(-c2cccs2)c1-c1cccs1,–,> 100 µM,–,> 100,–,–,–,> 100 µM,–,> 100 µM,–,> 100 µM,–,> 100,–,> 100
